Measurements from patent US8273773B2 (priority 2008, dated 2012).

Target: T1, HCV polymerase (NS5B570n-Con1) (Hepatitis C virus genotype 1b, UniProt Q9WMX2)
T1 construct: contains a 21 amino acid deletion at the C-terminus relative to the full-length HCV polymerase; 6-histidine (N); made in house; host or cells: E. coli strain BL21(DE) pLysS (pET17b)
Test: biochemical
Parameters: species or system HCV Con1 strain
Settings: IC50 HCV NS5B RNA Polymerase Assay (values with asterisk), values with asterisk: cIRES RNA template, 3 nM NS5B570n-Con1
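Also: recombinant His-tagged enzyme from E. coli, radiolabeled nucleotide incorporation into acid-insoluble RNA read by scintillation after filtration, no-enzyme background subtracted, activity relative to positive control.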

Question: `CS(=O)(=O)Nc1ccc(/C=C/c2cc(-c3ccc[nH]c3=O)cc(C3(C(F)F)CC3)c2)cc1` [I-275, N-(4-{(E)-2-[3-(1-Difluoromethyl-cyclopropyl)-5-(2-oxo-1,2-dihydro-pyridin-3-yl)-phenyl]-vinyl}-phenyl)-methanesulfonamide] was tested. Which IC50 did it give?
Answer: 1 nM

Question: How did the IC50 turn out when `COc1c(/C=C/c2ccc(NS(C)(=O)=O)cc2F)cc(-c2cc(F)c[nH]c2=O)cc1C(C)(C)C` [I-236, N-(4-{(E)-2-[3-tert-Butyl-5-(5-fluoro-2-oxo-1,2-dihydro-pyridin-3-yl)-2-methoxy-phenyl]-vinyl}-3-fluoro-phenyl)-methanesulfonamide] was run?
Answer: 1 nM

Question: Which IC50 does the source give for `COc1c(/C=C/c2ccc(NS(C)(=O)=O)cc2CN2CCOC2=O)cc(-c2cc(F)c[nH]c2=O)cc1C(C)(C)C` [I-220, N-[4-{(E)-2-[3-tert-Butyl-5-(5-fluoro-2-oxo-1,2-dihydro-pyridin-3-yl)-2-methoxy-phenyl]-vinyl}-3-(2-oxo-oxazolidin-3-ylmethyl)-phenyl]-methanesulfonamide] here?
Answer: 5 nM

Question: Which IC50 does the source give for `COc1c(/C=C/c2ccc(NS(C)(=O)=O)cc2C(=O)N(C)CCN(C)C)cc(-c2cc(F)c[nH]c2=O)cc1C(C)(C)C` [I-207] here?
Answer: 4 nM

Question: `COc1c(/C=C/c2ccc(NS(C)(=O)=O)cc2)cc(-c2ccc(CC#N)[nH]c2=O)cc1C(C)(C)C` [I-224, N-(4-{(E)-2-[3-tert-Butyl-5-(6-cyanomethyl-2-oxo-1,2-dihydro-pyridin-3-yl)-2-methoxy-phenyl]-vinyl}-phenyl)-methanesulfonamide] was tested. Which IC50 did it give?
Answer: 4 nM

Question: With `CCOc1c(/C=C/c2ccc(NS(C)(=O)=O)cc2)cc(-c2ccc[nH]c2=O)cc1C(C)(C)C` [I-249] as the compound, how does the IC50 read?
Answer: 11 nM

Question: Which IC50 does the source give for `COc1c(/C=C/c2ccc(NS(=O)(=O)CCCN3CCCC3)cc2)cc(-c2ccc[nH]c2=O)cc1C(C)(C)C` [I-234, 3-Pyrrolidin-1-yl-propane-1-sulfonic acid (4-{(E)-2-[3-tert-butyl-2-methoxy-5-(2-oxo-1,2-dihydro-pyridin-3-yl)-phenyl]-vinyl}-phenyl)-amide] here?
Answer: 4 nM

Question: `COc1c(/C=C/c2ccc(NS(C)(=O)=O)cc2)cc(-c2cc(Cl)c[nH]c2=O)cc1C1CC1` [I-292, N-(4-{(E)-2-[5-(5-Chloro-2-oxo-1,2-dihydro-pyridin-3-yl)-3-cyclopropyl-2-methoxy-phenyl]-vinyl}-phenyl)-methanesulfonamide] was tested. Which IC50 did it give?
Answer: 29 nM

Question: Which IC50 does the source give for `COc1c(/C=C/c2ccc(NS(C)(=O)=O)cc2CN(C)C)cc(-c2cc(F)c[nH]c2=O)cc1C(C)(C)C` [I-221, N-(4-{(E)-2-[3-tert-Butyl-5-(5-fluoro-2-oxo-1,2-dihydro-pyridin-3-yl)-2-methoxy-phenyl]-vinyl}-3-dimethylaminomethyl-phenyl)-methanesulfonamide] here?
Answer: 11 nM

Question: `COc1c(CCc2ccc(NS(C)(=O)=O)cc2C(=O)O)cc(-c2cc(F)c[nH]c2=O)cc1C(C)(C)C` [I-190, 2-{2-[3-tert-Butyl-5-(5-fluoro-2-oxo-1,2-dihydro-pyridin-3-yl)-2-methoxy-phenyl]-ethyl}-5-methanesulfonylamino-benzoic acid] was tested. Which IC50 did it give?
Answer: 1 nM

Question: With `COc1c(/C=C/c2ccc(NS(=O)(=O)CCCN3CCOCC3)cc2)cc(-c2cc(F)c[nH]c2=O)cc1C(C)(C)C` [I-231, 3-Morpholin-4-yl-propane-1-sulfonic acid (4-{(E)-2-[3-tert-butyl-5-(5-fluoro-2-oxo-1,2-dihydro-pyridin-3-yl)-2-methoxy-phenyl]-vinyl}-phenyl)-amide] as the compound, how does the IC50 read?
Answer: 4 nM

Question: `COc1c(/C=C/c2ccc(NS(=O)(=O)CCN3CCOCC3)cc2)cc(-c2cc(F)c[nH]c2=O)cc1C(C)(C)C` [I-233] was tested. Which IC50 did it give?
Answer: 1 nM

Question: With `COc1c(/C=C/c2ccc(NS(C)(=O)=O)cc2)cc(-c2ccc[nH]c2=O)cc1C(C)(C)OC` [I-289, N-(4-{(E)-2-[2-Methoxy-3-(1-methoxy-1-methyl-ethyl)-5-(2-oxo-1,2-dihydro-pyridin-3-yl)-phenyl]-vinyl}-phenyl)-methanesulfonamide] as the compound, how does the IC50 read?
Answer: 2 nM

Question: How did the IC50 turn out when `COCc1cc(NS(C)(=O)=O)ccc1/C=C/c1cc(-c2ccc(OC)[nH]c2=O)cc(C(C)(C)C)c1OC` [I-209, N-(4-{(E)-2-[3-tert-Butyl-2-methoxy-5-(6-methoxy-2-oxo-1,2-dihydro-pyridin-3-yl)-phenyl]-vinyl}-3-methoxymethyl-phenyl)-methanesulfonamide] was run?
Answer: 1 nM

Question: With `CC(C)(CO)c1cc(/C=C/c2ccc(NS(C)(=O)=O)cc2)cc(-c2ccc[nH]c2=O)c1` [I-272, N-(4-{(E)-2-[3-(2-Hydroxy-1,1-dimethyl-ethyl)-5-(2-oxo-1,2-dihydro-pyridin-3-yl)-phenyl]-vinyl}-phenyl)-methanesulfonamide] as the compound, how does the IC50 read?
Answer: 6 nM

Question: Which IC50 does the source give for `CCS(=O)(=O)Nc1ccc(/C=C/c2cc(-c3cc(F)c[nH]c3=O)cc(C(C)(C)C)c2OC)cc1` [I-228, Ethanesulfonic acid (4-{(E)-2-[3-tert-butyl-5-(5-fluoro-2-oxo-1,2-dihydro-pyridin-3-yl)-2-methoxy-phenyl]-vinyl}-phenyl)-amide] here?
Answer: 5 nM

Same assay, conditions: IC50 HCV NS5B RNA Polymerase Assay, values without asterisk; 20 nM NS5B570n-Con1 enzyme, 20 nM cIRES RNA template

Question: `COc1c(C(=O)Nc2cccc(CO)c2C)cc(-c2ccc[nH]c2=O)cc1C(C)(C)C` [I-78] was tested. Which IC50 did it give?
Answer: 1130 nM

Question: Which IC50 does the source give for `COc1c(/C=C/c2ccc(NS(C)(=O)=O)nc2)cc(-c2cc(F)c[nH]c2=O)cc1C(C)(C)C` [I-175] here?
Answer: 6 nM

Question: `COc1c(NC(=O)c2ccc(NC3CC3)cc2)cc(-c2ccc[nH]c2=O)cc1C(C)(C)C` [I-256, N-[3-tert-Butyl-2-methoxy-5-(2-oxo-1,2-dihydro-pyridin-3-yl)-phenyl]4-cyclopropylamino-benzamide] was tested. Which IC50 did it give?
Answer: 19 nM

Question: `COc1c(C(=O)NC2CCCN(C)C2)cc(-c2ccc[nH]c2=O)cc1C(C)(C)C` (stereo not drawn) [I-77] was tested. Which IC50 did it give?
Answer: 1830 nM

Question: For `COc1c(C(=O)NCC(C)c2ccccc2)cc(-c2ccc[nH]c2=O)cc1C(C)(C)C` (stereo not drawn) [I-35], which IC50 is on record?
Answer: 1230 nM

Question: For `COc1c(NC(=O)c2ccc(NS(C)(=O)=O)cc2OCCN(C)C)cc(-c2ccc[nH]c2=O)cc1C(C)(C)C` [I-285], which IC50 is on record?
Answer: 149 nM

Question: With `COc1c(C(=O)NC2CCN(C)CC2)cc(-c2ccc[nH]c2=O)cc1C(C)(C)C` [I-91] as the compound, how does the IC50 read?
Answer: 1480 nM

Question: How did the IC50 turn out when `CC(C)(C)c1cc(/C=C/c2ccc(NS(C)(=O)=O)cc2C(=O)O)cc(-c2ccc[nH]c2=O)c1` [I-159, 2-{(E)-2-[3-tert-Butyl-5-(2-oxo-1,2-dihydro-pyridin-3-yl)-phenyl]-vinyl}-5-methanesulfonylamino-benzoic acid] was run?
Answer: 8 nM

Question: How did the IC50 turn out when `COc1c(NC(=O)c2ccc(NCC(F)(F)F)nn2)cc(-c2ccc[nH]c2=O)cc1C(C)(C)C` [I-248, 6-(2,2,2-Trifluoro-ethylamino)-pyridazine-3-carboxylic acid [3-tert-butyl-2-methoxy-5-(2-oxo-1,2-dihydro-pyridin-3-yl)-phenyl]-amide] was run?
Answer: 19 nM

Question: Which IC50 does the source give for `COc1c(CC(CN(C)C)c2ccc(NS(C)(=O)=O)cc2)cc(-c2ccc[nH]c2=O)cc1C(C)(C)C` (stereo not drawn) [I-192, N-(4-{2-[3-tert-Butyl-2-methoxy-5-(2-oxo-1,2-dihydro-pyridin-3-yl)-phenyl]-1-dimethylaminomethyl-ethyl}-phenyl)-methanesulfonamide] here?
Answer: 28 nM

Question: How did the IC50 turn out when `COc1c(C(=O)NCc2ccc(N(C)C)cc2)cc(-c2ccc[nH]c2=O)cc1C(C)(C)C` [I-40] was run?
Answer: 1600 nM

Question: For `COc1c(C(=O)NC2CCCCC2CO)cc(-c2ccc[nH]c2=O)cc1C(C)(C)C` (stereo not drawn) [I-93], which IC50 is on record?
Answer: 1900 nM

Question: How did the IC50 turn out when `CC(C)(C)c1cc(/C=C/c2ccc(NS(C)(=O)=O)c(F)c2)cc(-c2ccc[nH]c2=O)c1` [I-146, N-(4-{(E)-2-[3-tert-Butyl-5-(2-oxo-1,2-dihydro-pyridin-3-yl)-phenyl]-vinyl}-2-fluoro-phenyl)-methanesulfonamide] was run?
Answer: 3 nM

Question: Which IC50 does the source give for `COc1c(C(=O)Nc2cccc(O)c2C)cc(-c2ccc[nH]c2=O)cc1C(C)(C)C` [I-185] here?
Answer: 854 nM

Question: How did the IC50 turn out when `COc1c(C(=O)NC2CCC(NS(C)(=O)=O)CC2)cc(-c2ccc[nH]c2=O)cc1C(C)(C)C` (stereo not drawn) [I-260, 3-tert-Butyl-N-(4-methanesulfonylamino-cyclohexyl)-2-methoxy-5-(2-oxo-1,2-dihydro-pyridin-3-yl)-benzamide] was run?
Answer: 35 nM

Question: Which IC50 does the source give for `COc1c(/C=C/c2ccc(N)nn2)cc(-c2ccc[nH]c2=O)cc1C(C)(C)C` [I-181] here?
Answer: 8 nM

Question: For `COc1c(/C=C/c2ccc(NS(=O)(=O)CC(F)(F)F)cc2)cc(-c2cc(F)c[nH]c2=O)cc1C(C)(C)C` [I-152], which IC50 is on record?
Answer: 16 nM

Question: For `COCCNc1ccc(C(=O)Nc2cc(-c3ccc[nH]c3=O)cc(C(C)(C)C)c2OC)cc1` [I-257, N-[3-tert-Butyl-2-methoxy-5-(2-oxo-1,2-dihydro-pyridin-3-yl)-phenyl]-4-(2-methoxy-ethylamino)-benzamide], which IC50 is on record?
Answer: 184 nM

Question: With `COc1c(NC(=O)c2ccc(N)cn2)cc(-c2ccc[nH]c2=O)cc1C(C)(C)C` [I-283] as the compound, how does the IC50 read?
Answer: 9 nM

Question: `COc1c(CC(C(=O)O)c2ccc(NS(C)(=O)=O)cc2)cc(-c2ccc[nH]c2=O)cc1C(C)(C)C` (stereo not drawn) [I-179, 3-[3-tert-Butyl-2-methoxy-5-(2-oxo-1,2-dihydro-pyridin-3-yl)-phenyl]-2-(4-methanesulfonylamino-phenyl)-propionic acid] was tested. Which IC50 did it give?
Answer: 8 nM

Question: For `Cc1cc(-c2ccc(CO)[nH]c2=O)cc(C(C)(C)C)c1` [I-12], which IC50 is on record?
Answer: 892 nM

Question: `COc1c(C(=O)NCCc2ccccc2)cc(-c2ccc[nH]c2=O)cc1C(C)(C)C` [I-34] was tested. Which IC50 did it give?
Answer: 1700 nM

Question: For `COc1c(C(=O)NCCN(C)C)cc(-c2ccc[nH]c2=O)cc1C(C)(C)C` [I-43], which IC50 is on record?
Answer: 1750 nM

Question: With `COc1c(CCc2ccc(NS(C)(=O)=O)cc2)cc(-c2ccc[nH]c2=O)c(F)c1C(C)(C)C` [I-287, N-(4-{2-[3-tert-Butyl-4-fluoro-2-methoxy-5-(2-oxo-1,2-dihydro-pyridin-3-yl)-phenyl]-ethyl}-phenyl)-methanesulfonamide] as the compound, how does the IC50 read?
Answer: 9 nM

Same assay, conditions: read-out: IC50 HCV NS5B RNA Polymerase Assay; values without asterisk; 20 nM NS5B570n-Con1 enzyme, 20 nM cIRES RNA template

Question: How did the IC50 turn out when `COc1c(/C=C/c2ccc(NS(=O)(=O)C(F)(F)F)cc2)cc(-c2cc(F)c[nH]c2=O)cc1C(C)(C)C` [I-154] was run?
Answer: 10 nM

Question: With `COc1c(/C=C/c2ccc(NS(C)(=O)=O)nn2)cc(-c2cc(F)c[nH]c2=O)cc1C(C)(C)C` [I-184] as the compound, how does the IC50 read?
Answer: 4 nM
